Measurements reported in paper PMC6481325, “Novel N,N-dialkyl cyanocinnamic acids as monocarboxylate transporter 1 and 4 inhibitors” (Oncotarget, 2019).
Read-outs that look alike come from different tables or passages of the source.

Tests used:
[1] = tested on: MCT1 expressing WiDr cells; experiment: Seahorse XFe96 mitochondrial stress test (OCR), WiDr; format: cell-based; settings: 30 μM
Experimental: (§1) Extracellular acidification rates (ECAR) and oxygen consumption rates (OCR) were recorded in real-time for glycolysis stress test (GST) and mitochondrial stress test (MST), respectively, using Agilent Seahorse XFe96® analyzer.

WiDr cells = experiment: SRB cell proliferation inhibition assay, WiDr; format: cell-based; settings: Homo sapiens, 72 hours, average ± sem
Experimental: (§2) MDA-MB-231 cells (ATCC, 2015) were grown in DMEM supplemented with 10% FBS and penicillin-streptomycin (50 U/ml, 50 μg/ml, Invitrogen). WiDr cells (ATCC, 2017) were cultured in MEM medium supplemented with 10% FBS (Atlanta Biologicals) and penicillin-streptomycin (50 U/ml, 50 μg/ml). For in vitro experiments, after seeding, cells were incubated at 37°C in 5% CO2 for 18–24 hours before the addition of test compounds.
(§3) Cells (5 × 10^4 cells/mL) were cultured in 48-well plates. Test compounds were dissolved in DMSO (final concentration of DMSO is <0.1%) and were added to culture wells at various concentrations in replicate and incubated for 72 hours. Growth medium was removed and the wells were washed with PBS and dried. SRB (0.5% in 1% acetic acid) was added to the wells and incubated for 30–45 minutes. The wells were washed 3 times with 1% acetic acid and dried. The cellular protein was dissolved in trizma base (10 mM, pH 10.2) and absorbance was recorded at 540 nm. Percent survival was calculated using the formula %Survival=Abstest compound/Abscontrol×100 .

MCT4 = molecular target: T1, MCT4 (Homo sapiens, UniProt O15427); experiment: L-[14C]-lactate uptake study in MCT4 expressing MDA-MB-231 cells; format: cell-based
T1 construct: These cells predominantly express MCT4 as confirmed by Western blot and quantitative PCR analysis; host or cells: MDA-MB-231
T1 sequence (O15427 2-465 limits assumed): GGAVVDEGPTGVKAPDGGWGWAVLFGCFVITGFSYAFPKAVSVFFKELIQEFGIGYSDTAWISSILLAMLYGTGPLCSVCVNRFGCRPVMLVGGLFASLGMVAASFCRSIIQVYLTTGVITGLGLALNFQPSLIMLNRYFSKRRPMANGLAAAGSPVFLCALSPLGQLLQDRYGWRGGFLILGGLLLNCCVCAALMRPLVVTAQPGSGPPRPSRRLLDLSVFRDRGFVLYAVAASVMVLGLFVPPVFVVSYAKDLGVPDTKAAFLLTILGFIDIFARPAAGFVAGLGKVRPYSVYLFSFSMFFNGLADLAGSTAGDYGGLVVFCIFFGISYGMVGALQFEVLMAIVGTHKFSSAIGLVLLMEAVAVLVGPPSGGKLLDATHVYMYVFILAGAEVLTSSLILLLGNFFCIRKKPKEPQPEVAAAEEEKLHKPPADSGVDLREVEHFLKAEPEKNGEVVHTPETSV
T1 sequence (P35613 140-385 partner limits assumed): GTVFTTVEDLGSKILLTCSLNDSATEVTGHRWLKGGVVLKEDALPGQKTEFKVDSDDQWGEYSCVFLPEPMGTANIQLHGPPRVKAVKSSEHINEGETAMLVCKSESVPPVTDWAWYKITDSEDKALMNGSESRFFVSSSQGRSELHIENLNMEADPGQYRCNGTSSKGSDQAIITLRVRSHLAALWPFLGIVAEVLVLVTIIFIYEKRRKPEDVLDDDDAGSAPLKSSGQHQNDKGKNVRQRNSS
Experimental: In this study, an L-[^14C]-lactate based transport assay was developed by us to quantify MCT4 transport and its inhibition by test compounds. […] For the MCT4 transport assay, the pH of HEPES buffer with L-[^14C]-lactate was adjusted to 7.0 such that lactate influx into the cells was aided by the pH gradient. […] Test compounds were diluted to working concentration in HEPES buffer (140 mM NaCl, 5 mM KCl, 2 mM CaCl2, 2 mM MgCl2, 10 mM HEPES, pH 7.0) containing 3 μM L-[^14C]-lactate (Perkin Elmer) and 2 μM L-lactate. […] HEPES buffer was replaced with 250 μL test solution. After 1 hour, media was replaced with 500 μL ice-cold stop buffer (0.1 mM CHC solution in HBS, pH 7.4) and the plates were placed on ice. Cells were washed twice with ice-cold stop buffer and solubilized using 250 μL of 0.1 M NaOH in 5% Triton-X (Millipore Sigma). A 150 μL aliquot from each well was added to 4 mL EcoLite(+)™ scintillation fluid (MP Biomedicals) and radioactivity was determined by scintillation spectrometry. Inhibition by each test solution was calculated as a percentage of the maximum control uptake. CHC and dimethylsulfoxide (DMSO) were used as controls. […]

[2] = tested on: MCT1 expressing WiDr cells; experiment: Seahorse XFe96 glycolysis stress test (ECAR), WiDr; format: cell-based; settings: 30 μM
Experimental: (§4) In the GST, three parameters namely glycolysis, glycolytic capacity and glycolytic reserve were measured.
as §1

[3] = tested on: MCT4 expressing MDA-MB-231 cells; experiment: Seahorse XFe96 mitochondrial stress test (OCR), MDA-MB-231; format: cell-based; settings: 30 μM
Experimental: as §1

MDA-MB-231 cells = experiment: SRB cell proliferation inhibition assay, MDA-MB-231; format: cell-based; settings: Homo sapiens, 72 hours, average ± sem
Experimental: as §2, §3

MCT1 = settings: RBE4 cells, cited from earlier work
[4] = tested on: MCT4 expressing MDA-MB-231 cells; experiment: Seahorse XFe96 glycolysis stress test (ECAR), MDA-MB-231; format: cell-based; settings: 30 μM
Experimental: as §4, §1

[5] = tested on: MDA-MB-231 tumor xenograft; experiment: Tumor growth inhibition, MDA-MB-231 xenograft model; format: in vivo; settings: SCID mice
Experimental: Figure 6 In vivo xenograft studies in WiDr and MDA-MB-231 tumor models (A) WiDr tumor xenograft study of compound 3 and compound 9. Mice (n = 8) were treated with 8 mg/kg of compound 3, intraperitoneally, two times a day. (B) Tumor growth inhibition study with compound 9 in MDA-MB-231 tumor xenograft model (n = 6). Mice were treated with compound 9 (70 mg/kg, ip, bid until day-4; qd from day-5), a combination of 9 and doxorubicin (0.5 mg/kg, ip, five days a week), and doxorubicin. (C) Tumor growth inhibition based on isolated tumor mass. ^*P < 0.05, ^**P < 0.01, ^***P < 0.001, ^****P < 0.0001. Schematic representation of (D) untreated tumor cells and (E) inhibition of MCT1 and MCT4 and decreased glycolysis and mitochondrial OxPhos in compound 9 treated tumor cells. Upward hollowed arrow indicates “increase” in function/amount and downward hollowed arrow indicates “decrease” in function/amount.
Group-1 was administered with compound 9, group-2 was given a combination of compound 9 and clinical breast cancer drug doxorubicin (AKSci catalog # E518), and group-3 was treated with doxorubicin alone. Group-4 was assigned as a control group and treated with vehicle (10% DMSO in saline). The treatment was continued up to 18 days and on day 20, the mice were euthanized and tumor masses isolated and weighed. […] Due to these reasons, higher dosages of compound 9 were required to produce significant anticancer efficacy in vivo. In all these studies, <20% of body weight loss was observed.
Tumor cells suspended in 1:1 matrigel-PBS were injected on right flank of female SCID mice (n = 6 mice/group, 10^7 MDA-MB-231 cells) or right flank of female athymic nude mice (n = 8 mice/group, 5 × 10^6 WiDr cells). Tumors were measured using calipers every 2–3 days and tumor volumes were calculated using the formula V = ab^2/2 where ‘a’ is the long diameter of the tumor and ‘b’ is the short diameter of the tumor. Tumor growth inhibition was determined using the formula % inhibition = [(C – T)/C] × 100 where C is average tumor weight of the control group and T is the average tumor weight of the test group.

[6] = Supplementary Table 1, average ± SEM, read-out: MCT4 IC50
[7] = Supplementary Table 1, average ± SEM

CCCCN(CCCC)c1ccc(/C=C(\C#N)C(=O)O)c(OC)c1 [Butyl (3)]
ATP production (MST, OCR) [1]: decreased | maximal respiration (MST, OCR) [1]: decreased | spare respiratory capacity (MST, OCR) [1]: decreased | IC50 (WiDr cells): > 25000 nM | IC50 (MCT4; [6]): 14 ± 2 nM | glycolytic capacity (GST, ECAR) [2]: significant decrease | glycolytic reserve (GST, ECAR) [2]: significant decrease | ATP production (MST, OCR) [3]: decreased | maximal respiration (MST, OCR) [3]: decreased | spare respiratory capacity (MST, OCR) [3]: decreased | IC50 (MDA-MB-231 cells): > 25000 nM

COc1cc(N(CC(C)C)CC(C)C)ccc1/C=C(\C#N)C(=O)O [Isobutyl (4)]
IC50 (MCT1; [7]): 11 ± 4 nM | IC50 (WiDr cells): > 25000 nM | IC50 (MCT4; [6]): 17 ± 2 nM | IC50 (MDA-MB-231 cells): > 25000 nM

COc1cc(N2CCCC2)ccc1/C=C(\C#N)C(=O)O [Pyrrolidinyl (6)]
IC50 (WiDr cells): > 25000 nM | IC50 (MDA-MB-231 cells): > 25000 nM

CCCCCN(CCCCC)c1ccc(/C=C(\C#N)C(=O)O)c(OC)c1 [Pentyl (5)]
IC50 (MCT1; [7]): 34 ± 7 nM | IC50 (WiDr cells): > 25000 nM | IC50 (MCT4; [6]): 85 ± 8 nM | IC50 (MDA-MB-231 cells): > 25000 nM

CCCN(CCC)c1ccc(/C=C(\C#N)C(=O)O)c(OC)c1 [Propyl (1)]
IC50 (MCT1; [7]): 12 ± 1 nM | IC50 (WiDr cells): > 25000 nM | IC50 (MCT4; [6]): 11 ± 1 nM | IC50 (MDA-MB-231 cells): > 25000 nM

N#CC(=Cc1ccc(O)cc1)C(=O)O [CHC, α-cyano-4-hydroxy cinnamic acid, reference compound]
IC50 (MCT1; CHC, lactate uptake): ≥ 150000 nM | ATP production (MST, OCR) [1]: did not affect | maximal respiration (MST, OCR) [1]: did not affect | proton leak (MST, OCR) [1]: did not affect | spare respiratory capacity (MST, OCR) [1]: did not affect | IC50 (MCT4; MCT4 IC50, CHC, lactate uptake): ≥ 150000 nM | glycolysis (GST, ECAR) [2]: did not affect | glycolytic capacity (GST, ECAR) [2]: did not affect | glycolytic reserve (GST, ECAR) [2]: decreased | ATP production (MST, OCR) [3]: did not affect | maximal respiration (MST, OCR) [3]: did not affect | proton leak (MST, OCR) [3]: did not affect | spare respiratory capacity (MST, OCR) [3]: did not affect | glycolysis (GST, ECAR) [4]: did not affect | glycolytic capacity (GST, ECAR) [4]: did not affect | glycolytic reserve (GST, ECAR) [4]: decreased glycolytic reserve only in MCT1 expressing WiDr

C=CCN(CC=C)c1ccc(/C=C(\C#N)C(=O)O)c(OC)c1 [Allyl (2)]
IC50 (MCT1; [7]): 29 ± 2 nM | IC50 (WiDr cells): > 25000 nM | IC50 (MCT4; Figure 1A and text, lactate uptake, read-out: MCT4 IC50): 28 nM | IC50 (MCT4; [6]): 24 ± 6 nM | IC50 (MDA-MB-231 cells): > 25000 nM

COc1cc(N(Cc2ccccc2)Cc2ccccc2)ccc1/C=C(\C#N)C(=O)O [Benzyl (8)]
IC50 (MCT1; Figure 1A and text, lactate uptake): 37 nM | IC50 (MCT1; [7]): 25 ± 3 nM | IC50 (WiDr cells): > 25000 nM | IC50 (MCT4; [6]): 32 ± 3 nM | IC50 (MDA-MB-231 cells): > 25000 nM

COc1cccc2c1C(=O)c1c(O)c3c(c(O)c1C2=O)C[C@@](O)(C(=O)CO)C[C@@H]3O[C@H]1C[C@H](N)[C@H](O)[C@H](C)O1 [doxorubicin, reference compound]
tumor growth inhibition based on tumor volume ([5]; 9 70 mg/kg ip bid until day-4, qd from day-5, doxorubicin 0.5 mg/kg ip five days a week, treatment up to 18 days): 48% | tumor growth inhibition based on isolated tumor weights ([5]; same regimens, tumors isolated on day 20): 52%

COc1cc(N2CCCCC2)ccc1/C=C(\C#N)C(=O)O [Piperidinyl (7)]
IC50 (MCT1; [7]): 25 ± 5 nM | IC50 (WiDr cells): > 25000 nM | IC50 (MCT4; [6]): 58 ± 13 nM | IC50 (MDA-MB-231 cells): > 25000 nM

Cc1[nH]nc(C(F)(F)F)c1Cc1sc2c(c1C(=O)N1C[C@](C)(O)CO1)c(=O)n(C)c(=O)n2C(C)C [AZD3965, reference compound]
ATP production (MST, OCR) [1]: did not affect | maximal respiration (MST, OCR) [1]: did not affect | proton leak (MST, OCR) [1]: did not affect | spare respiratory capacity (MST, OCR) [1]: did not affect | glycolytic capacity (GST, ECAR) [2]: decreased | glycolytic reserve (GST, ECAR) [2]: decreased | ATP production (MST, OCR) [3]: did not affect | maximal respiration (MST, OCR) [3]: did not affect | proton leak (MST, OCR) [3]: did not affect | spare respiratory capacity (MST, OCR) [3]: did not affect | glycolysis (GST, ECAR) [4]: did not show any glycolysis inhibition | glycolytic capacity (GST, ECAR) [4]: decreased glycolytic capacity only in WiDr | glycolytic reserve (GST, ECAR) [4]: decreased glycolytic reserve only in MCT1 expressing WiDr
